Like-named read-outs stand apart in the source and are kept apart here.
Legend:
[1] = Plasma PK of rosuvastatin and oral contraceptives with and without rucaparib (phase 1 DDI study, noncompartmental analysis); format: in vivo, human; details: for detected in human plasma up to (postdose): 30 µg dose, LC–MS/MS; for AUC(0-inf) / AUC(0-t) / Cmax / half-life / Vd/F / Tmax: human; for AUC(0-inf) / AUC(0-t) / Cmax / half-life / Vd/F: po; for Tmax: read-out: tmax, Median (range); for change of median tmax with rucaparib: with vs without rucaparib
Description: This was a 2-part, phase 1, open-label, 2-arm DDI study in patients with advanced solid tumors. In Part 1 of the study, patients were screened for eligibility from day − 28 to − 2 and visited the study site from day − 1 to 23 (Fig. 1). […] To check steady-state plasma concentrations for rucaparib, a blood sample was collected prior to the dosing of rucaparib on days 5, 9, 11, 15, and 19–23.
Other PK parameters, calculated for the probe drugs, included half-life (t1/2), tmax, apparent total clearance of drug after oral administration (CL/F), and apparent volume of distribution during terminal phase (VZ/F). The PK parameter calculated for rucaparib at steady state was trough plasma concentration (Cmin). PK parameters were calculated by noncompartmental analysis using Phoenix WinNonlin, version 8.1 (Certara, Princeton, NJ).
Details are provided in Online Resource 1.
The LC consisted of a Gemini NX C18 column (2 x 50 mm, 3 μm, Phenomenex, Torrance, CA) and was eluted with a gradient consisting of 0.1% acetic acid in water as mobile phase A and with 100% acetonitrile as mobile phase B at an initial flow rate of 0.5 mL/min at room temperature. The MS/MS consisted of an AB SCIEX API5000 system and was operated with Analyst version 1.6.2 in TurboIonSpray and positive ionization mode. […] The concentration range for quantitation was 0.1–100 ng/mL.
Separation between potential metabolites and interfering endogenous compounds was achieved by ultra-high performance liquid chromatography with a CSH C18 column at 40°C and gradient elution using 0.1% formic acid in water as mobile phase A and acetonitrile as mobile phase B, operating at an initial flow rate of 0.800 mL/min. A triple quadrupole mass spectrometer (Triple Quad 6500) equipped with a turbo ion spray source was used for detection in positive ion mode.

[2] = DDI analysis: geometric mean ratio of probe drug PK with versus without rucaparib; format: in vivo, human; details: Arm B; steady-state rucaparib
Description: The DDI analysis population included patients who completed the DDI assessment per protocol and had sufficient PK data to calculate Cmax and AUC of the probe drug with and without rucaparib. […] With the assumption that intrapatient PK variability would be 35% for the probe drugs, a total enrollment of 32 patients was planned for this study: 16 for Arm A and 16 for Arm B. […] The primary PK parameters were natural log-transformed before assessment with a paired t test.

[3] = plasma, 600 mg, with rucaparib 600 mg BID (day 19), single oral dose, plasma, read-out: AUC0–inf, GM (%CV)
[4] = plasma, 600 mg, with rucaparib 600 mg BID (day 19), single oral dose, plasma, read-out: AUC0–inf, Mean (SD)
[5] = plasma, 600 mg, with rucaparib 600 mg BID (day 19), single oral dose, plasma, read-out: AUC0–inf, Median (range)
[6] = plasma, 600 mg, with rucaparib 600 mg BID (day 19), single oral dose, plasma, read-out: AUC0–last, GM (%CV)
[7] = plasma, 600 mg, with rucaparib 600 mg BID (day 19), single oral dose, plasma, read-out: AUC0–last, Mean (SD)
[8] = plasma, 600 mg, with rucaparib 600 mg BID (day 19), single oral dose, plasma, read-out: AUC0–last, Median (range)
[9] = plasma, 600 mg, with rucaparib 600 mg BID (day 19), single oral dose, plasma, read-out: Cmax, GM (%CV)
[10] = plasma, 600 mg, with rucaparib 600 mg BID (day 19), single oral dose, plasma, read-out: Cmax, Median (range)
[11] = plasma, 600 mg, with rucaparib 600 mg BID (day 19), single oral dose, plasma, read-out: t1/2, GM (%CV) (converted)
[12] = plasma, 600 mg, with rucaparib 600 mg BID (day 19), single oral dose, plasma, read-out: t1/2, Mean (SD) (converted)
[13] = plasma, 600 mg, with rucaparib 600 mg BID (day 19), single oral dose, plasma, read-out: t1/2, Median (range) (converted)
[14] = plasma, 600 mg, with rucaparib 600 mg BID (day 19), single oral dose, read-out: VZ/F, GM (%CV)
[15] = plasma, 600 mg, with rucaparib 600 mg BID (day 19), single oral dose, read-out: VZ/F, Mean (SD)
[16] = plasma, 600 mg, with rucaparib 600 mg BID (day 19), single oral dose, read-out: VZ/F, Median (range)
[17] = plasma, without rucaparib (day 1), single oral dose, plasma, PK analysis population, read-out: Cmax, Mean (SD)
[18] = plasma, without rucaparib (day 1), single oral dose, plasma, read-out: AUC0–inf, GM (%CV)
[19] = plasma, without rucaparib (day 1), single oral dose, plasma, read-out: AUC0–inf, Mean (SD)
[20] = plasma, without rucaparib (day 1), single oral dose, plasma, read-out: AUC0–inf, Median (range)
[21] = plasma, without rucaparib (day 1), single oral dose, plasma, read-out: AUC0–last, Mean (SD)
[22] = plasma, without rucaparib (day 1), single oral dose, plasma, read-out: AUC0–last, Median (range)
[23] = plasma, without rucaparib (day 1), single oral dose, plasma, read-out: Cmax, GM (%CV)
[24] = plasma, without rucaparib (day 1), single oral dose, plasma, read-out: Cmax, Median (range)
[25] = plasma, without rucaparib (day 1), single oral dose, plasma, read-out: t1/2, GM (%CV) (converted)
[26] = plasma, without rucaparib (day 1), single oral dose, plasma, read-out: t1/2, Mean (SD) (converted)
[27] = plasma, without rucaparib (day 1), single oral dose, plasma, read-out: t1/2, Median (range) (converted)
[28] = plasma, without rucaparib (day 1), single oral dose, read-out: VZ/F, GM (%CV)
[29] = plasma, without rucaparib (day 1), single oral dose, read-out: VZ/F, Mean (SD)
[30] = plasma, without rucaparib (day 1), single oral dose, read-out: VZ/F, Median (range)
[31] = without rucaparib (day 1), single oral dose, plasma
[32] = with rucaparib 600 mg BID (day 19), single oral dose
[33] = without rucaparib (day 1), single oral dose

AUC(0-inf) [1, 3] [ng·h/mL] | AUC(0-inf) [1, 4] [ng·h/mL] | AUC(0-inf) [1, 5] [ng·h/mL] | AUC(0-t) [1, 6] [ng·h/mL] | AUC(0-t) [1, 7] [ng·h/mL] | AUC(0-t) [1, 8] [ng·h/mL] | Cmax [1, 9] [ng/mL] | Cmax [1, 10] [ng/mL] | half-life [1, 11] [h] | half-life [1, 12] [h] | half-life [1, 13] [h] | Vd/F [1, 14] [L] | Vd/F [1, 15] [L] | Vd/F [1, 16] [L] | Cmax [1, 17] [ng/mL] | AUC(0-inf) [1, 18] [ng·h/mL] | AUC(0-inf) [1, 19] [ng·h/mL] | AUC(0-inf) [1, 20] [ng·h/mL] | AUC(0-t) [1, 21] [ng·h/mL] | AUC(0-t) [1, 22] [ng·h/mL] | SMILES | also measured
1.41 | 1.49 | 1.37 | 1.15 | 1.24 | 1.18 | 0.0784 | 0.0756 | 24.8 | 30 | 27.1 | 653 | 684 | 620 | 0.0792 | 0.962 | 0.994 | 1 | 0.804 | 0.775 | C#C[C@]1(O)CC[C@H]2[C@@H]3CCc4cc(O)ccc4[C@H]3CC[C@@]21C [ethinylestradiol] | detected in human plasma up to (postdose) ([1]; with rucaparib): ≤ 72 h; detected in human plasma up to (postdose) ([1]; without rucaparib): up to 48 h; Cmax [1, 23]: 0.0732 ng/mL; Cmax [1, 24]: 0.0734 ng/mL; half-life [1, 25]: 15.9 h; half-life [1, 26]: 17 h; half-life [1, 27]: 18.1 h; Vd/F [1, 28]: 772 L; Vd/F [1, 29]: 792 L; Vd/F [1, 30]: 772 L; Tmax [1, 31]: 1 h; Cmax, Mean (SD) ([1]; with rucaparib 600 mg BID (day 19), single oral dose, plasma, PK analysis population): 0.0893 (0.0443) ng/mL; change of median tmax with rucaparib [1]: 0.5 h; AUC increase with rucaparib [2]: approximately 1.4 fold; Cmax increase with rucaparib [2]: < 1.25 fold
102 | 109 | 87.3 | 77.5 | 86 | 80.4 | 3.43 | 3.48 | 46.6 | 50 | 43.6 | 77.6 | 82.8 | 85.6 | 3.32 | 64 | 72.7 | 55.4 | 59.7 | 45.3 | C#C[C@]1(O)CC[C@H]2[C@@H]3CCC4=CC(=O)CC[C@@H]4[C@H]3CC[C@@]21CC [levonorgestrel] | Cmax ([1]; plasma, 600 mg, with rucaparib 600 mg BID (day 19), single oral dose, plasma, PK analysis population, read-out: Cmax, Mean (SD)): 3.77 ng/mL; AUC(0-t) ([1]; plasma, without rucaparib (day 1), single oral dose, plasma, read-out: AUC0–last, GM (%CV)): 52.9 ng·h/mL; Cmax [1, 23]: 3.17 ng/mL; Cmax [1, 24]: 3.29 ng/mL; half-life [1, 25]: 38.5 h; half-life [1, 26]: 41.1 h; half-life [1, 27]: 37.1 h; Vd/F [1, 28]: 103 L; Vd/F [1, 29]: 113 L; Vd/F [1, 30]: 114 L; Tmax ([1]; with rucaparib 600 mg BID (day 19), single oral dose, plasma): 1.5 h; Tmax [1, 31]: 1.51 h; CL/F, Mean (SD) [1, 32]: 1.57 (0.531) L/h; CL/F, Median (range) [1, 32]: 1.72 (0.701–2.39) L/h; change of median tmax with rucaparib [1]: remained the same; CL/F, Mean (SD) [1, 33]: 2.57 (1.01) L/h; CL/F, Median (range) [1, 33]: 2.71 (0.891–3.84) L/h; AUC increase with rucaparib [2]: ~1.6 fold; Cmax increase with rucaparib [2]: < 1.25 fold
